Data from paper PMC6268896, “Two New Diterpenoids from the Buds of Wikstroemia chamaedaphne” (Molecules, 2012).
pIC50: −log10 of the molar value. Where two headings read alike, the source gives them in different places.

Legend:
[1] = test system: HL-60 (human myeloid leukemia) cells; test: MTT cytotoxicity assay, HL-60; type: cell-based; conditions: HL-60, MTT, 48 h, read-out: IC50 against HL-60
Description: (§1) Compounds 1–10 were evaluated for their cytotoxic activities against five human cancer cell lines, HL-60 (human myeloid leukemia), SMMC-7721 (hepatocellular carcinoma), A549 (lung cancer), MCF-7 (breast cancer), and SW480 (colon cancer), and one human normal cell line BEAS-2B (human bronchial epithelial) by the MTT method. DDP (cis-platin) and taxol were used as positive controls.
(§2) Five human cancer cell lines, human myeloid leukemia HL-60, hepatocellular carcinoma SMMC-7721, lung cancer A549, breast cancer MCF-7, and colon cancer SW480 cells, together with one human normal cell line BEAS-2B (human bronchial epithelial), were assayed. Cells were cultured in RPMI-1640 or in DMEM medium (Hyclone, USA), supplemented with 10% fetal bovine serum (Hyclone, USA) in 5% CO2 at 37 °C. The antiproliferative assay was performed according to the MTT (3-(4,5-dimethylthiazol-2-yl)-2,5-diphenyl tetrazolium bromide) method in 96-well microplates, as reported previously, with slight modification. Briefly, 100 μL of adherent cells was seeded into each well of 96-well cell culture plates and allowed to adhere for 12 h before addition of test compounds, while suspended cells were seeded just before the addition of the drug with initial density of 1 × 10^5 cells/mL. Each cancer cell line was exposed to the tested compound at concentrations of 0.0625, 0.32, 1.6, 8, and 40 μM in triplicates for 48 h. Wells with DMSO were used as negative controls, and DDP (cis-platin, Sigma, USA) and taxol were used as a positive control. After compound treatment, cell viability was detected by a Bio-Rad 680 at λ = 595 nm and a cell growth curve was graphed. IC50 values were calculated by Reed and Muench’s method.

[2] = test system: SMMC-7721 (hepatocellular carcinoma) cells; test: MTT cytotoxicity assay, SMMC-7721; type: cell-based, human; conditions: SMMC-7721, MTT, 48 h, read-out: IC50 against SMMC-7721
Description: as §1, §2

A549 (lung cancer) cells = test: MTT cytotoxicity assay, A549; type: cell-based, human; conditions: A-549, MTT, 48 h, read-out: IC50 against A-549
Description: as §1, §2

[3] = test system: MCF-7 (breast cancer) cells; test: MTT cytotoxicity assay, MCF-7; type: cell-based, human; conditions: MCF-7, MTT, 48 h, read-out: IC50 against MCF-7
Description: as §1, §2

[4] = test system: SW480 (colon cancer) cells; test: MTT cytotoxicity assay, SW480; type: cell-based, human; conditions: 48 h, read-out: IC50 against SW480
Description: as §1, §2

[5] = test system: BEAS-2B (human bronchial epithelial) cells; test: MTT cytotoxicity assay, BEAS-2B normal cell line; type: cell-based; conditions: BEAS-2B human normal cell line, 48 h, read-out: IC50 against BEAS-2B
Description: as §1, §2

Compound	pIC50 ([1]; Homo sapiens)	pIC50 ([2]; Homo sapiens)	pIC50 (A549 (lung cancer) cells; Homo sapiens, A549)	pIC50 ([3]; Homo sapiens, MCF7)	pIC50 ([4]; Homo sapiens)	pIC50 [5]	pIC50 [1]	pIC50 [2]	pIC50 (A549 (lung cancer) cells)	pIC50 [3]	pIC50 [4]
CCCCC/C=C/C=C/C(=O)O[C@@H]1[C@@H](C)[C@@]2(O)[C@@H](C=C(CO)C[C@]3(O)C(=O)C(C)=C[C@@H]23)[C@@H]2C(C)(C)[C@]12OC(C)=O [Compound 5, prostratin Q]	4.80	4.82	4.80	4.83	4.83	4.78					
COc1ccc(C[C@@H]2COC(=O)[C@H]2Cc2ccc(OC)c(O)c2)cc1O [Compound 10, prestegane B]	< 4.40	< 4.40	< 4.40	< 4.40	< 4.40	< 4.40					
COc1cc([C@H]2c3cc(O)c(OC)cc3C[C@@H](CO)[C@@H]2CO)ccc1O [Compound 7, (+)-isolariciresinol]	< 4.40	< 4.40	< 4.40	< 4.40	< 4.40	< 4.40					
CC(=O)O[C@@]12C[C@@H](C)[C@@]3(O)[C@@H](C=C(CO)C[C@]4(O)C(=O)C(C)=C[C@@H]34)[C@@H]1C2(C)C [Compound 4, prostratin]	4.81	4.74	4.90	4.80	4.88	4.76					
COc1cc(C[C@@H]2CO[C@@H](c3ccc(O)c(OC)c3)[C@@H]2CO)ccc1O [Compound 8, (−)-lariciresinol]	< 4.40	< 4.40	< 4.40	< 4.40	< 4.40	< 4.40					
CC(=O)O[C@H]1C(=O)[C@@]2(C)[C@H]([C@H](OC(=O)c3ccccc3)[C@]3(O)C[C@H](OC(=O)[C@H](O)[C@@H](NC(=O)c4ccccc4)c4ccccc4)C(C)=C1C3(C)C)[C@]1(OC(C)=O)CO[C@@H]1C[C@@H]2O [Taxol, taxol, reference compound]	> 8.10	> 8.10	> 8.10	> 8.10	> 8.10	5.30					
C=C(C)[C@]12C[C@@H](C)[C@@]34OC5(CCCCCCC[C@@H](C)[C@H]6[C@H](C)[C@H](O)[C@@](O)([C@H](O)[C@@]7(COC(=O)/C=C/c8ccccc8)O[C@H]7[C@H]3[C@H]1O5)[C@@H]64)O2 [Compound 1, wikstroelide Q]	4.58	< 4.40	< 4.40	< 4.40	< 4.40	< 4.40					
C=C(C)[C@]12C[C@@H](C)[C@@]34OC5(CCCCCCC[C@H](C)[C@H]6[C@H](C)[C@H](OC(=O)c7ccccc7)[C@@](O)([C@H](O)[C@@]7(CO)O[C@H]7[C@H]3[C@H]1O5)[C@@H]64)O2 [Compound 2, pimelea factors P2]	4.86	4.76	4.92	4.89	4.80	4.76					
N.N.[Cl][Pt][Cl] [DDP ( cis-platin), cis-platin, reference compound]						5.06	5.90	4.79	4.85	4.77	4.74
COc1cc([C@H]2OC[C@H]3[C@@H]2CO[C@H]3c2ccc(O)c(OC)c2)ccc1O [Compound 6, (+)-epipioresinol]	< 4.40	< 4.40	< 4.40	< 4.40	< 4.40	< 4.40					
C=C(C)[C@@]12C[C@@H](C)[C@@]34OC5(CCCCCCC[C@@H](C)[C@H]6[C@H](C)[C@H](OC(=O)c7ccccc7)[C@@](O)([C@H](O)[C@@]7(CO)O[C@H]7[C@H]3[C@H]1O5)[C@@H]64)O2 [Compound 3, pimelea factor P3]	4.88	4.83	4.95	4.85	4.84	4.81					
O=C(c1ccc2c(c1)OCO2)[C@H]1CO[C@H](c2ccc3c(c2)OCO3)[C@H]1CO [Compound 9, (+)-epi-sesaminone]	< 4.40	< 4.40	< 4.40	< 4.40	< 4.40	< 4.40					
